Measured values taken from patent US8796268B2, “Heteroaryls and uses thereof” (Millennium Pharmaceuticals, Inc., priority 2010, dated 2014).

Key:
Type in all cases: biochemical
Human PI3K alpha = target: T1, Human PI3K alpha (Homo sapiens, UniProt P42336); assay: Human PI3K alpha enzyme assay (HTRF); settings: concentration not given, b1387 states 1.1 μM for PI3K α and β; for inhibition at 1.1 µM: read-out: p110 alpha Percent Inhibition
T1 construct: His (N); host or cells: SF9 insect cells (baculovirus)
T1 sequence (P42336 whole entry): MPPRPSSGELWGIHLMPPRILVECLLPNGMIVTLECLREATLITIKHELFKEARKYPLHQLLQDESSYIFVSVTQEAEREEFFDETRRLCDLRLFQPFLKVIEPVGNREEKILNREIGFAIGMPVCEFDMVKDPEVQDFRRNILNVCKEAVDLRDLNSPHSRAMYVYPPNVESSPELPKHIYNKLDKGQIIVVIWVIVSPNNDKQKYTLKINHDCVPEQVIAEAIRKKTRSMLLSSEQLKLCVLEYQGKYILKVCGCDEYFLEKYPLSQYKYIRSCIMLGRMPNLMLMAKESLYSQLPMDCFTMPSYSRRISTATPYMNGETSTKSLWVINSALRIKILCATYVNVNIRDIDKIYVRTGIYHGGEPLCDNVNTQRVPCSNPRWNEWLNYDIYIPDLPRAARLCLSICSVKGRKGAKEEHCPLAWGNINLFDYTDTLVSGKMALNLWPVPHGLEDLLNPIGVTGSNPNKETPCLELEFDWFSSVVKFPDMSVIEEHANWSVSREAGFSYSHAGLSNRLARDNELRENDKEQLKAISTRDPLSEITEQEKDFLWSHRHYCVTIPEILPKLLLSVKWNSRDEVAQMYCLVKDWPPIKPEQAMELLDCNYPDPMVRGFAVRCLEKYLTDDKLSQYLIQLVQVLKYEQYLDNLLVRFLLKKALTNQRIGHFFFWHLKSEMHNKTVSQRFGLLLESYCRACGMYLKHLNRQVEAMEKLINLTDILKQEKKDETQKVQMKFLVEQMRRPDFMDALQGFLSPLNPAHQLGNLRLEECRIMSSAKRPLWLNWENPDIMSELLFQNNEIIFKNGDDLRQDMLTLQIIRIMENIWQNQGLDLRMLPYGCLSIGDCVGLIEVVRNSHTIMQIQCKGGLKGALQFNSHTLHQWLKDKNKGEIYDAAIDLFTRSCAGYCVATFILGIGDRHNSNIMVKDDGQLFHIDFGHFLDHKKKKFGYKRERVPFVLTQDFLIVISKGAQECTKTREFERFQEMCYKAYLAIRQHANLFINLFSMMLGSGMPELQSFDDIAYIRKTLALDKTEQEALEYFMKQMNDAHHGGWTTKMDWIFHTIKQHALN
T1 sequence (P27986 whole entry partner): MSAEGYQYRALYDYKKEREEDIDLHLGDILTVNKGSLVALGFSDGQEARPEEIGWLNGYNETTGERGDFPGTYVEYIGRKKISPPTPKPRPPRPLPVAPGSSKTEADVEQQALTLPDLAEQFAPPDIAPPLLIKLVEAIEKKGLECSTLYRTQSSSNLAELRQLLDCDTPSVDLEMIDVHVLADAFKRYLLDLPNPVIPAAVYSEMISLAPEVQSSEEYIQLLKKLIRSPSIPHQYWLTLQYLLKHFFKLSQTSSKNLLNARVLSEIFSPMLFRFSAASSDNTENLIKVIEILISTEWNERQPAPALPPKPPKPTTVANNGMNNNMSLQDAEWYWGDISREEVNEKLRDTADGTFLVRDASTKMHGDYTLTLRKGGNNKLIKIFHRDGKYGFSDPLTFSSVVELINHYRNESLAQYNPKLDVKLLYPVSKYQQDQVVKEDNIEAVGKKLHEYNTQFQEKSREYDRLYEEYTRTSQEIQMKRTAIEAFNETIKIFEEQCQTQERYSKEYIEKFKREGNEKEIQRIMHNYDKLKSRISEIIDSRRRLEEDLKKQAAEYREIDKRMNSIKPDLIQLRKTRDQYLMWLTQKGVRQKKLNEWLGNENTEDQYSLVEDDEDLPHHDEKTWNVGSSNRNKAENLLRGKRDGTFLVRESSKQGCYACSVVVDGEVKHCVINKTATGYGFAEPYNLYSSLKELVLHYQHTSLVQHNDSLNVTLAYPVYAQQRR

Human PI3K beta = target: T2, Human PI3K beta (Homo sapiens, UniProt P42338); assay: Human PI3K beta enzyme assay (HTRF); settings: concentration not given, b1387 states 1.1 μM for PI3K α and β; for inhibition at 1.1 µM: read-out: p110 beta Percent Inhibition
T2 construct: His (N); host or cells: SF9 insect cells (baculovirus)
T2 sequence (P42338 whole entry): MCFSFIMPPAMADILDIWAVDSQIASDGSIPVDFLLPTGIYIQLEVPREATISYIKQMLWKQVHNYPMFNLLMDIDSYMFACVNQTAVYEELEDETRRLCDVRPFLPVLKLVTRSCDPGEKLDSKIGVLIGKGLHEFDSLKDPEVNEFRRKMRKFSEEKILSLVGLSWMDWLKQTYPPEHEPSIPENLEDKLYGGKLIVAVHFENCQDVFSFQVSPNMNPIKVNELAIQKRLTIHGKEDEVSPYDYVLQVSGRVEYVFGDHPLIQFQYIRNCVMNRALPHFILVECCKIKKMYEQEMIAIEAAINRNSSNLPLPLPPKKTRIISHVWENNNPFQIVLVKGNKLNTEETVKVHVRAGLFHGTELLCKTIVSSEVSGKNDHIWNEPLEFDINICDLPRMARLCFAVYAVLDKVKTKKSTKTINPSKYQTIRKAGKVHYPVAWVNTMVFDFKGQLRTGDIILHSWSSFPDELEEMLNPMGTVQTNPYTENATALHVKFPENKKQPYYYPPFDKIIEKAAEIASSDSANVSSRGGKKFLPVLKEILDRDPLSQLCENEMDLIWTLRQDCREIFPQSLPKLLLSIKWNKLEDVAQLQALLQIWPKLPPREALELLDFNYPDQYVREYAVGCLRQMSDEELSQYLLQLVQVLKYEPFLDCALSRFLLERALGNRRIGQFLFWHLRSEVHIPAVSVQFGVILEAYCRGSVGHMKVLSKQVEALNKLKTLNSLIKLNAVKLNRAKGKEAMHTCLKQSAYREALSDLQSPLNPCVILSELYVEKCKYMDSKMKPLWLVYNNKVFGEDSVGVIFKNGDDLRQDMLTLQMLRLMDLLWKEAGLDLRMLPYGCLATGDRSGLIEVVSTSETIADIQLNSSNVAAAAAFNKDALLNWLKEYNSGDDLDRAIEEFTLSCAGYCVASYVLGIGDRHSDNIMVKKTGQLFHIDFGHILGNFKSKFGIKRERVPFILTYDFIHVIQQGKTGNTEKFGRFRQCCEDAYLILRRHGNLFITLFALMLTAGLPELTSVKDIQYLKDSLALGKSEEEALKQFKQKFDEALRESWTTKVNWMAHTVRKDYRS
T2 sequence (P27986 whole entry partner): as the sequence (P27986 whole entry partner) above
How it was run: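 Compounds were mixed with 25 uM ATP, then with 3.5 uM di-C8 PI(4,5)P2 and His-tagged PI3K isoform (β 5.25 nM, δ 0.75 nM, γ 5 nM) at pH 7.00. After 30 min at room temperature, EDTA stopped the reaction and PIP3 was measured by HTRF over 1 h.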

Human PI3K delta = target: T3, Human PI3K delta (Homo sapiens, UniProt O00329); assay: Human PI3K delta enzyme assay (HTRF); settings: concentration not given, b1389 states 1.0 μM for PI3K δ and γ; for inhibition at 1 µM: read-out: p110 delta Percent Inhibition
T3 construct: His (N); host or cells: SF9 insect cells (baculovirus)
T3 sequence (O00329 whole entry): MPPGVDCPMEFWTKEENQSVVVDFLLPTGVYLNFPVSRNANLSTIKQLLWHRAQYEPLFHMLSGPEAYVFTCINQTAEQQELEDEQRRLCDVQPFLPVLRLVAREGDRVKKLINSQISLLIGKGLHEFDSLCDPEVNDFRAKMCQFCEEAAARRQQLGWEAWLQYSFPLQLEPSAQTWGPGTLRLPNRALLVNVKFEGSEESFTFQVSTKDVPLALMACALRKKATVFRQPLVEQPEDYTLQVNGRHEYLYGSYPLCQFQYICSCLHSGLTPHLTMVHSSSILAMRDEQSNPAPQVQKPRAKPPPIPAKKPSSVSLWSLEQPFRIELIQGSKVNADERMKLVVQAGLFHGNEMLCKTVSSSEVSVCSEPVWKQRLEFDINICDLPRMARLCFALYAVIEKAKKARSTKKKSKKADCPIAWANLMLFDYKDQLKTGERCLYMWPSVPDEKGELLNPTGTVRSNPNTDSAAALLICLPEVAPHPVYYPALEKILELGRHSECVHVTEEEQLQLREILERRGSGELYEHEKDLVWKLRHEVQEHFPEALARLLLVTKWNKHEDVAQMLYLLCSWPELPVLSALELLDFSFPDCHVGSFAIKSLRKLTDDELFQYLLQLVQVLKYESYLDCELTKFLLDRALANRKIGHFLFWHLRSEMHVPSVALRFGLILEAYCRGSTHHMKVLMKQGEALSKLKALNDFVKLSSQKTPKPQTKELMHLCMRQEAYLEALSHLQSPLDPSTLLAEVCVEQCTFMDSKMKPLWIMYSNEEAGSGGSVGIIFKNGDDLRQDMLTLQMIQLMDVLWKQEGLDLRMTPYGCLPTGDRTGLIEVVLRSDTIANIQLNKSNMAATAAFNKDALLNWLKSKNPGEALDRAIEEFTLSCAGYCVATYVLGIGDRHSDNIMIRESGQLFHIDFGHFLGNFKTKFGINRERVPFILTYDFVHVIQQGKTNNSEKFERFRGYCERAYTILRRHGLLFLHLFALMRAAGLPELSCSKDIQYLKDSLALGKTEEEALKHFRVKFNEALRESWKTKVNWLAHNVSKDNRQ
T3 sequence (P27986 whole entry partner): as the sequence (P27986 whole entry partner) above
Excerpt: (§1) The catalytic subunits of PI3Ks are cloned into either pDEST8(p110 alpha) or pDEST10(p110beta, p110delta, and p110gamma) as N-terminal His tagged fusion proteins using the Gateway system (Invitrogen, catalog#11804-010 for pDEST8 and 11806-015 for pDEST10). The sequences are verified before recombinant protein expression using the Baculovirus Expression System with Gateway® Technology. The accession numbers for the subunits are as follows: • p110 alpha (GB:U79143) • p110beta (GB: S67334) • p110delta (GB: U86453) • p110gamma (GB: X83368) • The regulatory subunits of PI3Ks are cloned into pDEST8 as un-tagged protein using the Gateway system (Catalog#11804-010). The sequences are verified before recombinant protein expression using the Baculovirus Expression System with Gateway® Technology. The accession numbers for the subunits are as following: • p85 alpha (GB: BC030815) • p101(GB: AB028925) • VPS34 (accession number GB:BC033004) is cloned into pDEST20—Thombin as N-terminal GST tagged fusion proteins using the Gateway system (Invitrogen, catalog#11804-013). The sequences are verified before recombinant protein expression using the Baculovirus Expression System with Gateway® Technology.
(§2) For expression of the p110 complexes, the p85 (MOI of 4) is co-infected with p110 alpha, beta, and delta respectively (1MOI) in SF9 cells and harvested at 60 hours post co-infection. P110 gamma was infected at 1 MOI and harvested at 60 hours post infection.
(§3) For purification, PI3Ks are purified by Ni-NTA Agarose (Qiagen #30250) followed by Mono Q 10/100 GL (Ge Healthcare #17-5167-01). VPS34 is purified by Glutathione Sepharose 4 Fast Flow (GE Healthcare #17-5132-03) followed by HiTrap Q (GE Healthcare #17-1153-01).
(§4) 0.5 uL compounds in DMSO are added to wells of a 384 well microtitre plate (Corning 3575). At room temperature: 10 ul PI3K reaction buffer (50 mM Hepes, 5 mM DTT, 150 mM NaCl, 10 mM beta-glycerophosphate, 10 mM MgCl2, 0.25 mM sodium cholate and 0.001% CHAPS, pH 7.00) containing ATP (25 uM, Promega) is added followed immediately by 10 ul PI3K reaction buffer containing di-C8 P1(4,5)P2 (3.5 uM, CellSignals) and PI3Kalpha (0.4875 nM, Millennium Protein Sciences Group) and the mixture is incubated with shaking at room temperature for 30 minutes. Then 5 ul PI3K stop mix (50 mM Hepes, 5 mM DTT, 150 mM NaCl, 0.01% Tween-20, 15 mM EDTA and 25 nM biotin-PI(3,4,5)P3 (Echelon) is added to quench the reaction followed immediately by addition of 5 ul HTRF detection mix (50 mM Hepes, 5 mM DTT, 150 mM NaCl, 0.01% Tween-20, 40 mM KF, 1.0 nM GST:GRP-1 PH domain (Millennium Protein Sciences Group), 15 nM Streptavidin-XL (CisBio) and 0.375 nM anti-GST Eu++ antibody (CisBio) at pH 7.00). The plates are then incubated for 1 hour at room temperature with shaking and then read on a BMG PheraStar Plus reader.
(§5) 2) Human PI3K beta, delta and gamma isoforms are tested using the procedure described for PI3K alpha above but with the following changes: PI3K beta (5.25 nM), PI3K delta (0.75 nM) and PI3K gamma (5 nM). All isoforms supplied by Millennium Protein Science Group.
(§6) For the assay methods described above, test compound percent inhibition, at various concentrations, is calculated relative to control (DMSO and EDTA) treated samples. Compound concentration versus percent inhibition curves are fitted to generate IC50 values. One skilled in the art will appreciate that the values generated either as percentage inhibition at a single concentration or IC50 values are subject to experimental variation.

Human PI3K gamma = target: T4, Human PI3K gamma (Homo sapiens, UniProt P48736); assay: Human PI3K gamma enzyme assay (HTRF); settings: concentration not given, b1389 states 1.0 μM for PI3K δ and γ; for inhibition at 1 µM: read-out: p110 gamma Percent Inhibition
T4 construct: His (N); host or cells: SF9 insect cells (baculovirus)
T4 sequence (P48736 whole entry): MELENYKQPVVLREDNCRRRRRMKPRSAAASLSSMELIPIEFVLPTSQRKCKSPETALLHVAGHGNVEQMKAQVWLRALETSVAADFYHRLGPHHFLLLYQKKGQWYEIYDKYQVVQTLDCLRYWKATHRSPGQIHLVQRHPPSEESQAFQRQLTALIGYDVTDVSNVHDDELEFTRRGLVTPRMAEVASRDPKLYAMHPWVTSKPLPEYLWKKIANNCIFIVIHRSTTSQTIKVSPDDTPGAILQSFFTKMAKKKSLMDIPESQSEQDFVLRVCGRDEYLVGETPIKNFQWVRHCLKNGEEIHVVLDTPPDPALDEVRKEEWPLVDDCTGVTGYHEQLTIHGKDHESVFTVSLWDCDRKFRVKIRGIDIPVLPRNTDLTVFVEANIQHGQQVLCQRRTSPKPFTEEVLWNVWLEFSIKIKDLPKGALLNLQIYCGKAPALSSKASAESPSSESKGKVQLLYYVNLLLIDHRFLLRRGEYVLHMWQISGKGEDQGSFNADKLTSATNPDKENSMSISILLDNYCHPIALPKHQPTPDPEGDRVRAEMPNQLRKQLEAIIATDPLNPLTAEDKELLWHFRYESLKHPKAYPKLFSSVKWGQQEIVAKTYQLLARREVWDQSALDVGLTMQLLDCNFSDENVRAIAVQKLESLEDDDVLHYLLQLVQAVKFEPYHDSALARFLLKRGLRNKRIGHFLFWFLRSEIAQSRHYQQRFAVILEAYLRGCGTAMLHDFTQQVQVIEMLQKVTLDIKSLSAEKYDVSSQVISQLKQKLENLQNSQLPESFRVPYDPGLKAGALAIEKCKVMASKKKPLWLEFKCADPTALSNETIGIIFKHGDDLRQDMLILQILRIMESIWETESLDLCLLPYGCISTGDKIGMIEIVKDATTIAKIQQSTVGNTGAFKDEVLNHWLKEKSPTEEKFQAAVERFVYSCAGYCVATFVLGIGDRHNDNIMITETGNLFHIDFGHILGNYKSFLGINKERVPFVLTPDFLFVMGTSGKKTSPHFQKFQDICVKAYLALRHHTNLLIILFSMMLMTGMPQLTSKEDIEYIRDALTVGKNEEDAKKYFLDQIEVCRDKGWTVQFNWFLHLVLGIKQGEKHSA
Excerpt: as §1, §2, §3, §4, §5, §6

Row | Structure (SMILES) | inhibition at 1.1 µM (Human PI3K alpha) [%] | inhibition at 1.1 µM (Human PI3K beta) [%] | inhibition at 1 µM (Human PI3K delta) [%] | inhibition at 1 µM (Human PI3K gamma) [%] | p110 alpha Percent Inhibition (Human PI3K alpha) [%] | p110 beta Percent Inhibition (Human PI3K beta) [%] | p110 delta Percent Inhibition (Human PI3K delta) [%] | p110 gamma Percent Inhibition (Human PI3K gamma) [%]
1 | COc1cc(C(O)c2cc(-c3ccnnc3)sc2-c2nnc[nH]2)c(F)cc1Cl (centres unmarked) [Compound 168] |  |  |  |  | 23 | 107 | 110 | 58
2 | OC(c1cc(-c2ccncc2)sc1-c1nnc[nH]1)c1cccc2nccnc12 (centres unmarked) [Compound 169] | 65 | 89 | 65 | 7 |  |  |  | 
3 | OC(c1ccc2ccccc2n1)c1cc(-c2ccncc2)sc1-c1nnc[nH]1 (centres unmarked) [Compound 171] | 59 | 106 | 99 | 60 |  |  |  | 
4 | N#Cc1c(-c2ccnnc2)sc(-c2nnc[nH]2)c1C(c1ccc2ccccc2c1)N1CCNCC1 (centres unmarked) [Compound 172] | 28 | 101 | 60 | 6 |  |  |  | 
5 | Cc1ccc(C(O)c2cc(-c3ccncc3)sc2-c2nnc[nH]2)cc1C (centres unmarked) [Compound 174] | 15 | 70 | 59 | 8 |  |  |  | 
6 | OC(c1cc(-c2ccncc2)sc1-c1nnc[nH]1)c1ccnc2ccccc12 (centres unmarked) [Compound 175] | 19 | 85 | 36 | 7 |  |  |  | 
7 | CC(=O)Nc1cc(-c2nc(Cc3ccc4ccccc4c3)c(C(=O)O)s2)ccn1 [Compound 177, 2-(2-acetamidopyridin-4-yl)-4-(naphthalen-2-ylmethyl)thiazole-5-carboxylic acid] | 79 | 100 | 106 | 34 |  |  |  | 
8 | Oc1cc(-c2sc(-c3ccncc3)nc2Cc2ccc(Cl)cc2)[nH]n1 [Compound 178, 5-(4-(4-chlorobenzyl)-2-(pyridin-4-yl)thiazol-5-yl)-1H-pyrazol-3-ol] | 20 | 109 | 88 | 38 |  |  |  | 
9 | COC(=O)Nc1cc(-c2sc(-c3nnc[nH]3)c(Cc3ccc4ccccc4c3)c2C#N)ccn1 [Compound 179] | 29 | 60 | 89 | 5 |  |  |  | 
10 | COC(=O)Nc1cc(-c2sc(C(=O)O)c(Cc3ccc4ccccc4c3)c2C#N)ccn1 [Compound 180] | 60 | 102 | 102 | 21 |  |  |  | 
11 | Cc1n[nH]c(C)c1-c1sc(-c2ccncc2)nc1Cc1ccc(Cl)cc1 [Compound 183] | -2 | 16 | 9 | 3 |  |  |  | 
12 | COc1cc(C(O)c2cc(-c3ccncc3)sc2-c2ncn[nH]2)c(F)cc1Cl (centres unmarked) [Compound 186] | 68 | 109 | 92 | 65 |  |  |  | 
13 | OC(c1ccc(F)cc1Cl)c1cc(-c2ccncc2)sc1-c1nnc[nH]1 (centres unmarked) [Compound 187] | 32 | 95 | 77 | 25 |  |  |  | 
14 | Cc1ccc(F)c(C(O)c2cc(-c3ccncc3)sc2-c2nnc[nH]2)c1 (centres unmarked) [Compound 188] | 47 | 94 | 82 | 36 |  |  |  | 
15 | Clc1ccc(Cc2nc(-c3ccncc3)sc2-c2nnn[nH]2)cc1 [Compound 190, 4-(4-chlorobenzyl)-2-(pyridin-4-yl)-5-(1H-tetrazol-5-yl)thiazole] | 3 | 60 | 33 | 7 |  |  |  | 
16 | OC(c1ccccc1C(F)(F)F)c1cc(-c2ccncc2)sc1-c1nnc[nH]1 (centres unmarked) [Compound 193] | 26 | 69 | 46 | 13 |  |  |  | 

Now from value to compound:

Row | inhibition at 1.1 µM (Human PI3K alpha) [%] | inhibition at 1.1 µM (Human PI3K beta) [%] | inhibition at 1 µM (Human PI3K delta) [%] | inhibition at 1 µM (Human PI3K gamma) [%] | p110 alpha Percent Inhibition (Human PI3K alpha) [%] | p110 beta Percent Inhibition (Human PI3K beta) [%] | p110 delta Percent Inhibition (Human PI3K delta) [%] | p110 gamma Percent Inhibition (Human PI3K gamma) [%] | Structure (SMILES)
17 | 105 | 103 | 110 | 26 |  |  |  |  | CC(=O)Nc1cc(-c2cc(C(c3ccc(Cl)cc3)n3ccnc3)c(-c3nnc[nH]3)s2)ccn1 (centres unmarked) [Compound 167]
18 | 84 | 106 | 105 | 26 |  |  |  |  | CNC1CN(C(c2ccc(Cl)cc2)c2cc(-c3ccnc(NC(C)=O)c3)sc2-c2nnc[nH]2)C1 (centres unmarked) [Compound 170]
19 | 69 | 67 | 83 | 3 |  |  |  |  | CC(=O)Nc1cc(-c2cc(C(OCC3CCCC3)c3ccc(Cl)cc3)c(-c3nnc[nH]3)s2)ccn1 (centres unmarked) [Compound 173]
20 |  |  |  |  | 85 | 91 | 108 | 35 | CC(=O)Nc1cc(-c2cc(C(c3ccc(Cl)cc3)N3CC(N(C)C)C3)c(-c3nnc[nH]3)s2)ccn1 (centres unmarked) [Compound 181, N-{4-[4-{(4-chlorophenyl)[3-(dimethylamino)azetidin-1-yl]-methyl}-5-(4H-1,2,4-triazol-3-yl)-2-thienyl]pyridin-2-yl}acetamide]
21 | 83 | 100 | 107 | 45 |  |  |  |  | CC(=O)Nc1cc(-c2cc(C(OCC3CNC3)c3ccc(Cl)cc3)c(-c3nnc[nH]3)s2)ccn1 (centres unmarked) [Compound 182]
22 | 76 | 112 | 112 | 16 |  |  |  |  | CC(=O)Nc1cc(-c2cc(C(NCCN(C)C)c3ccc(Cl)cc3)c(-c3nnc[nH]3)s2)ccn1 (centres unmarked) [Compound 184]
23 | 16 | 97 | 50 | 9 |  |  |  |  | CN(C)C(c1ccc(Cl)cc1)c1cc(-c2ccnc(N)c2)sc1-c1nnc[nH]1 (centres unmarked) [Compound 185]
24 | 26 | 97 | 90 | 30 |  |  |  |  | COc1ccc(C(O)c2cc(-c3ccncc3)sc2-c2nnc[nH]2)cc1Cl (centres unmarked) [Compound 191]
25 | 52 | 74 | 88 | 8 |  |  |  |  | COC(=O)Nc1cc(-c2sc(-c3nnc[nH]3)c(C(O)c3ccc(Cl)cc3)c2C#N)ccn1 (centres unmarked) [Compound 195, Methyl {4-[4-[(4-chlorophenyl)(hydroxy)methyl]-3-cyano-5-(4H-1,2,4-triazol-3-yl)-2-thienyl]pyridin-2-yl}carbamate]
26 | 69 | 91 | 105 | 12 |  |  |  |  | CC(=O)Nc1cc(-c2cc(C(c3ccc(Cl)cc3)N3CCN(C(C)=O)CC3)c(-c3nnc[nH]3)s2)ccn1 (centres unmarked) [Compound 196]
